Values after ≈ are worked out from the molar mass of the structure shown.
Assays:
Aphidius rhopalosiphi = test: LR50; higher = less toxic; details: not reported; mortality
Daphnia magna = details: chronic/long-term; duration: 21 days; growth
Pimephales promelas = details: chronic/long-term; duration: 278 days; growth
Anas platyrhynchos = details: short-term; oral; feed; mortality
Oryctolagus sp. = details: developmental; development
Lepomis macrochirus = details: acute; duration: 96 hours; mortality
Rattus norvegicus = details: for NOEC: chronic, M
Bibionidae = details: chronic/long-term; duration: 28 days; seedling emergence
Apis mellifera = details: acute; duration: 48 hours; oral; unspecified; mortality
Canidae = details: chronic; duration: 52 weeks; oral; Dog Other; body weight
Folsomia candida = details: chronic/long-term; duration: 28 days
Mus musculus = details: chronic; duration: 2 years; organ weight

O=[N+]([O-])c1cc(C(F)(F)F)c(Cl)c([N+](=O)[O-])c1Nc1ncc(C(F)(F)F)cc1Cl [Fluazinam]
LR50 (Aphidius rhopalosiphi): > 200 g/ha
NOEC (Daphnia magna): 0.0125 mg/L
NOEC (Pimephales promelas): 0.0029 mg/L
LC50 (Anas platyrhynchos): > 1230 mg/kg-day
LD50 (Colinus virginianus; acute, oral, mortality): 1780 mg/kg-day
NOEC (Colinus virginianus; reproduction developmental): 60.4 mg/kg-day
NOAEL (Oryctolagus sp.): 7 mg/kg-day
LC50 (Lepomis macrochirus): 0.055 µg/mL (≈ 0.118 µM)
LD50 (Rattus norvegicus; acute, F, mortality): 4100 mg/kg-day
NOEC (Rattus norvegicus): 5 mg/kg-day
NOEC (Rattus norvegicus; mortality): 100 mg/kg-day
NOEC (Bibionidae): 0.00625 mg/L
LD50 (Apis mellifera): > 100 µg/piece
LC50 (Tagia sp.; acute, duration: 14 days, mortality): > 1000 mg/kg
NOEC (Tagia sp.; chronic/long-term, duration: 28 days): 0.35 mg/kg
NOAEL (Canidae): 1 mg/kg-day
NOEC (Folsomia candida): < 1.57 mg/kg
NOAEL (Mus musculus): 1.12 mg/kg-day

— EPA's ToxValDB 9.5 (doi:10.2903/j.efsa.2008.137r)
